Source: patent US9440953B2, “Substituted amino triazoles useful as acidic mammalian chitinase inhibitors” (OncoArendi Therapeutics Sp z o.o., priority 2014, dated 2016)

target: recombinant human AMCase (Homo sapiens, UniProt Q9BZP6); experiment: Human AMCase Activity Assay; type: biochemical; conditions: recombinant hAMCase, 4-methylumbelliferyl B-D-N,N′-diacetylchitobioside substrate, citrate buffer pH 5.2, 37° C., 60 minutes
Method: Human AMCase Activity Assay
The assay was run in the 96-well plate format, each reaction in the total volume of 100 μL. 4-Methylumbelliferyl B-D-N,N′-diacetylchitobioside hydrate was used as a substrate for the enzyme. Upon hydrolysis by AMCase, the substrate releases 4-methylumbelliferyl (4MU) that, when ionized in basic pH, emits fluorescence at 460 nm.
Briefly, 40 μL of a substrate was added to each well, followed by 10 μL of compound dilution and 50 μL of hAMCase recombinant enzyme solution. […] The fluorescence of the reaction product was measured in Perkin Elmer Envision fluorescent plate reader at an excitation wavelength of 355 nm.

recombinant human AMCase, sequence (Q9BZP6 22-476): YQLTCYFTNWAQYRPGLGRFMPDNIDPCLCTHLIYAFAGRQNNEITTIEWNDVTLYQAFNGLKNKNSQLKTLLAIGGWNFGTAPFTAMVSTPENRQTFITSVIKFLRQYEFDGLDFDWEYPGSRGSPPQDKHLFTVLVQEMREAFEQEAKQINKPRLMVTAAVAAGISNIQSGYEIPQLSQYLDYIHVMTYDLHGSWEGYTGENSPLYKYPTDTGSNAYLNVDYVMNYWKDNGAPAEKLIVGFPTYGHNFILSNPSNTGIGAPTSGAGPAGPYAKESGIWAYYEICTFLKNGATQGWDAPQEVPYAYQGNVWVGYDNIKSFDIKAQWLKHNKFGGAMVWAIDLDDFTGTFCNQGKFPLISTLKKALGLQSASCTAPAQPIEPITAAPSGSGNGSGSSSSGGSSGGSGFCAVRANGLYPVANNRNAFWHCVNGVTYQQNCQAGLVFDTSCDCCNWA

IC50	Structure (SMILES)
100 to 1000 nM	Nc1n[nH]c(N2CCC(N(CCc3ccc(Cl)cc3)Cc3ccccc3C(=O)O)CC2)n1 [Example 2, 2-(((1-(3-amino-1H-1,2,4-triazol-5-yl)piperidin-4-yl)(4-chlorophenethyl)amino-)methyl)benzoic acid]
1 to 10 nM	Nc1n[nH]c(N2CCC(N(CCc3ccc(Br)cc3)Cc3cccc(C(=O)O)c3)CC2)n1 [Example 3, 3-(((1-(3-amino-1H-1,2,4-triazol-5-yl)piperidin-4-yl)(4-bromophenethyl)amino)-methyl)benzoic acid]
1 to 10 nM	Nc1n[nH]c(N2CCC(N(CCc3ccc(Br)cc3)Cc3ccc(C(=O)O)cc3)CC2)n1 [Example 4, 4-(((1-(3-amino-1H-1,2,4-triazol-5-yl)piperidin-4-yl)(4-bromophenethyl)-amino)methyl)benzoic acid]
1 to 10 nM	Cc1cc(CN(CCc2ccc(Cl)cc2)C2CCN(c3nc(N)n[nH]3)CC2)ccc1C(=O)O [Example 5, 4-(((1-(3-amino-1H-1,2,4-triazol-5-yl)piperidin-4-yl)(4-chlorophenethyl)amino)-methyl)-2-methylbenzoic acid]
10 to 100 nM	Cc1ccc(CN(CCc2ccc(Cl)cc2)C2CCN(c3nc(N)n[nH]3)CC2)cc1C(=O)O [Example 6, 5-(((1-(3-amino-1H-1,2,4-triazol-5-yl)piperidin-4-yl)(4-chlorophenethyl)-amino)methyl)-2-methylbenzoic acid]
1 to 10 nM	Nc1n[nH]c(N2CCC(N(CCc3ccc(Cl)cc3)Cc3ccc(Cl)c(C(=O)O)c3)CC2)n1 [Example 7, 5-(((1-(3-amino-1H-1,2,4-triazol-5-yl)piperidin-4-yl)(4-chlorophenethyl)amino)-methyl)-2-chlorobenzoic acid]
10 to 100 nM	Nc1n[nH]c(N2CCC(N(CCc3ccc(Cl)cc3)Cc3ccc(F)c(C(=O)O)c3)CC2)n1 [Example 8, 5-(((1-(3-amino-1H-1,2,4-triazol-5-yl)piperidin-4-yl)(4-chlorophenethyl)amino)-methyl)-2-fluorobenzoic acid]
10 to 100 nM	Nc1n[nH]c(N2CCC(N(CCNC(=O)c3ccccc3)CCc3ccc(Cl)cc3)CC2)n1 [Example 9, N-(2-((1-(3-amino-1H-1,2,4-triazol-5-yl)piperidin-4-yl)(4-chlorophenethyl)amino)-ethyl)benzamide]
100 to 1000 nM	CC(C)NC(=O)NCCN(CCc1ccc(Cl)cc1)C1CCN(c2nc(N)n[nH]2)CC1 [Example 12, 1-(2-((1-(3-amino-1H-1,2,4-triazol-5-yl)piperidin-4-yl)(4-chlorophenethyl)-amino)ethyl)-3-isopropylurea]
100 to 1000 nM	Nc1n[nH]c(N2CCC(N(CCNC(=O)C(F)(F)F)CCc3ccc(Cl)cc3)CC2)n1 [Example 14, N-(2-((1-(3-amino-1H-1,2,4-triazol-5-yl)piperidin-4-yl)(4-chlorophenethyl)-amino)ethyl)-2,2,2-trifluoroacetamide]
1 to 10 nM	Nc1n[nH]c(N2CCC(N(CCc3ccc(Br)cc3)Cc3ccc(S(N)(=O)=O)cc3)CC2)n1 [Example 15, 4-(((1-(3-amino-1H-1,2,4-triazol-5-yl)piperidin-4-yl)(4-bromophenethyl)amino)-methyl)benzenesulfonamide]
1 to 10 nM	CC(=O)NS(=O)(=O)c1ccc(CN(CCc2ccc(Br)cc2)C2CCN(c3nc(N)n[nH]3)CC2)cc1 [Example 16, N-((4-(((1-(3-amino-1H-1,2,4-triazol-5-yl)piperidin-4-yl)(4-bromophenethyl)-amino)methyl)phenyl)sulfonyl)acetamide]
1 to 10 nM	CC(C)C(=O)NS(=O)(=O)c1ccc(CN(CCc2ccc(Br)cc2)C2CCN(c3nc(N)n[nH]3)CC2)cc1 [Example 17, N-((4-(((1-(3-amino-1H-1,2,4-triazol-5-yl)piperidin-4-yl)(4-bromophenethyl)-amino)methyl)phenyl)sulfonyl)isobutyramide]
1 to 10 nM	CC(=O)NS(=O)(=O)c1cccc(CN(CCc2ccc(Br)cc2)C2CCN(c3nc(N)n[nH]3)CC2)c1 [Example 18, N-((3-(((1-(3-amino-1H-1,2,4-triazol-5-yl)piperidin-4-yl)(4-bromophenethyl)-amino)methyl)phenyl)sulfonyl)acetamide]
10 to 100 nM	Nc1n[nH]c(N2CCC(N(CCc3ccc(Cl)cc3)Cc3cccc(S(=O)(=O)NCC(F)(F)F)c3)CC2)n1 [Example 19, 3-(((1-(3-amino-1H-1,2,4-triazol-5-yl)piperidin-4-yl)(4-chlorophenethyl)amino)-methyl)-N-(2,2,2-trifluoroethyl)benzenesulfonamide]
100 to 1000 nM	Nc1n[nH]c(N2CCC(N(CCc3ccc(Cl)cc3)CC(=O)Nc3ccccc3)CC2)n1 [Example 21, 2-((1-(3-amino-1H-1,2,4-triazol-5-yl)piperidin-4-yl)(4-chlorophenethyl)amino)-N-phenylacetamide]
100 to 1000 nM	CC(C)NC(=O)CN(CCc1ccc(Cl)cc1)C1CCN(c2nc(N)n[nH]2)CC1 [Example 22, 2-((1-(3-amino-1H-1,2,4-triazol-5-yl)piperidin-4-yl)(4-chlorophenethyl)amino)-N-isopropylacetamide]

IC50	Structure (SMILES)
1 to 10 nM	CS(=O)(=O)NCCCN(CCc1ccc(Br)cc1)C1CCN(c2nc(N)n[nH]2)CC1 [Example 23, N-(3-((1-(3-amino-1H-1,2,4-triazol-5-yl)piperidin-4-yl)(4-bromophenethyl)-amino)propyl)methanesulfonamide]
1 to 10 nM	Cc1ccc(S(=O)(=O)NCCCN(CCc2ccc(Br)cc2)C2CCN(c3nc(N)n[nH]3)CC2)cc1 [Example 24, N-(3-((1-(3-amino-1H-1,2,4-triazol-5-yl)piperidin-4-yl)(4-bromophenethyl)-amino)propyl)-4-methylbenzenesulfonamide]
1000 to 10000 nM	Nc1n[nH]c(N2CCC(N(CCC(=O)O)CCc3ccc(Cl)cc3)CC2)n1 [Example 26, 3-((1-(3-amino-1H-1,2,4-triazol-5-yl)piperidin-4-yl)(4-chlorophenethyl)-amino)propanoic acid]
100 to 1000 nM	Nc1n[nH]c(N2CCC(N(CCCC(=O)O)CCc3ccc(Cl)cc3)CC2)n1 [Example 27, 4-((1-(3-amino-1H-1,2,4-triazol-5-yl)piperidin-4-yl)(4-chlorophenethyl)-amino)butanoic acid]
1000 to 10000 nM	Nc1n[nH]c(N2CCC(N(CCc3ccc(Cl)cc3)C(CC(=O)O)c3ccc(Cl)cc3)CC2)n1 (stereo not drawn) [Example 28, 3-((1-(3-amino-1H-1,2,4-triazol-5-yl)piperidin-4-yl)(4-chlorophenethyl)amino)-3-(4-chlorophenyl)propanoic acid]
10 to 100 nM	Nc1n[nH]c(N2CCC(N(CCc3ccc(Cl)cc3)CC(C(=O)O)c3ccc(Cl)cc3)CC2)n1 (stereo not drawn) [Example 29, 3-((1-(3-amino-1H-1,2,4-triazol-5-yl)piperidin-4-yl)(4-chlorophenethyl)amino)-2-(4-chlorophenyl)propanoic acid]
1000 to 10000 nM	Nc1n[nH]c(N2CCC(N(CCc3ccc(Cl)cc3)CC3(C(=O)O)CC3)CC2)n1 [Example 30, 1-(((1-(3-amino-1H-1,2,4-triazol-5-yl)piperidin-4-yl)(4-chlorophenethyl)amino)-methyl)cyclopropanecarboxylic acid]
10 to 100 nM	CS(=O)(=O)Nc1ccccc1CN(CCc1ccc(Cl)cc1)C1CCN(c2nc(N)n[nH]2)CC1 [Example 31, N-(2-(((1-(3-amino-1H-1,2,4-triazol-5-yl)piperidin-4-yl)(4-chlorophenethyl)-amino)methyl)phenyl)methanesulfonamide]
1 to 10 nM	CS(=O)(=O)Nc1cccc(CN(CCc2ccc(Cl)cc2)C2CCN(c3nc(N)n[nH]3)CC2)c1 [Example 32, N-(3-(((1-(3-amino-1H-1,2,4-triazol-5-yl)piperidin-4-yl)(4-chlorophenethyl)-amino)methyl)phenyl)methanesulfonamide]
1 to 10 nM	CS(=O)(=O)Nc1ccc(CN(CCc2ccc(Cl)cc2)C2CCN(c3nc(N)n[nH]3)CC2)cc1 [Example 33, N-(4-(((1-(3-amino-1H-1,2,4-triazol-5-yl)piperidin-4-yl)(4-chlorophenethyl)-amino)methyl)phenyl)methanesulfonamide]
1 to 10 nM	NC(=O)c1ccc(CN(CCc2ccc(Br)cc2)C2CCN(c3nc(N)n[nH]3)CC2)cc1 [Example 34, 4-(((1-(3-amino-1H-1,2,4-triazol-5-yl)piperidin-4-yl)(4-bromophenethyl)-amino)methyl)benzamide]
1 to 10 nM	CNC(=O)c1ccc(CN(CCc2ccc(Br)cc2)C2CCN(c3nc(N)n[nH]3)CC2)cc1 [Example 35, 4-(((1-(3-amino-1H-1,2,4-triazol-5-yl)piperidin-4-yl)(4-bromophenethyl)-amino)methyl)-N-methylbenzamide]
1 to 10 nM	Nc1n[nH]c(N2CCC(N(CCc3ccc(Cl)cc3)Cc3cccc(-c4nnn[nH]4)c3)CC2)n1 [Example 36, N-(3-(1H-tetrazol-5-yl)benzyl)-1-(3-amino-1H-1,2,4-triazol-5-yl)-N-(4-chlorophenethyl)piperidin-4-amine]
10 to 100 nM	CC(=O)NS(=O)(=O)CCN(CCc1ccc(Cl)cc1)C1CCN(c2nc(N)n[nH]2)CC1 [Example 38, N-((2-((1-(3-amino-1H-1,2,4-triazol-5-yl)piperidin-4-yl)(4-chlorophenethyl)-amino)ethyl)sulfonyl)acetamide]
1 to 10 nM	CS(=O)(=O)NC(=O)c1ccc(CN(CCc2ccc(Cl)cc2)C2CCN(c3nc(N)n[nH]3)CC2)cc1 [Example 39, 4-(((1-(3-amino-1H-1,2,4-triazol-5-yl)piperidin-4-yl)(4-chlorophenethyl)-amino)methyl)-N-(methylsulfonyl)benzamide]
1 to 10 nM	CS(=O)(=O)NC(=O)c1cccc(CN(CCc2ccc(Cl)cc2)C2CCN(c3nc(N)n[nH]3)CC2)c1 [Example 40, 3-(((1-(3-amino-1H-1,2,4-triazol-5-yl)piperidin-4-yl)(4-chlorophenethyl)amino)-methyl)-N-(methylsulfonyl)benzamide]
